Assays:
[1] = system: DAN-G (Pancreatic Carcinoma); experiment: Bliss excess, mean over the matrix (fraction); higher = more synergy
In short: (§1)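 After 24 hours at 37°C and 5% CO2 in 1536-well plates, cells in DMEM/F12 or RPMI plus 10% FBS received two-drug dose matrices for 72 hours. Viability came from CellTiter-Glo 2.0 luminescence and was scaled as inhibition, anchored at 0 by vehicle wells and at 1 by blank wells. Combination Emax is taken as the second-highest inhibition in the matrix, and Bliss excess as the observed combination effect less EA + EB − EA·EB, with EA and EB the single-agent effects.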

[2] = system: SNU-398 (Hepatocellular Carcinoma); experiment: as above
In short: as §1

**Q.** Which results are given for `CN(CCO)CC[C@H](CSc1ccccc1)Nc1ccc(S(=O)(=O)NC(=O)c2ccc(N3CCC([C@@H](O)c4ccccc4-c4ccc(Cl)cc4)CC3)cc2)cc1S(=O)(=O)C(F)(F)F` [AZD4320] + C=CCn1c(=O)c2cnc(Nc3ccc(N4CCN(C)CC4)cc3)nc2n1-c1cccc(C(C)(C)O)n1 [AZD1775] (first compound max 1 µM, partner max 1 µM)?
**A.** Bliss excess [1]: 0.0078; Bliss excess [2]: -0.0291

**Q.** How did the Bliss excess [1] turn out when `CC1(C)CCC(CN2CCN(c3ccc(C(=O)NS(=O)(=O)c4ccc(NCC5CCOCC5)c([N+](=O)[O-])c4)c(Oc4cnc5[nH]ccc5c4)c3)CC2)=C(c2ccc(Cl)cc2)C1` [Venetoclax] + C[C@@H](Nc1cc(F)cc(F)c1)c1cc(C(=O)N(C)C)cc2c(=O)cc(N3CCOCC3)oc12 [AZD8186] (first compound max 1 µM, 7x7, partner max 3 µM) was run?
**A.** -0.0346

**Q.** What about the Bliss excess [2] of the same compound?
**A.** -0.0201

**Q.** How did the Bliss excess [1] turn out when `CN(CCO)CC[C@H](CSc1ccccc1)Nc1ccc(S(=O)(=O)NC(=O)c2ccc(N3CCC([C@@H](O)c4ccccc4-c4ccc(Cl)cc4)CC3)cc2)cc1S(=O)(=O)C(F)(F)F` [AZD4320] + C[C@@H]1COCCN1C2=NC(=NC(=C2)C3(CC3)[S@](=N)(=O)C)C4=C5C=CNC5=NC=C4 [AZD6738] (first compound max 1 µM, 7x7, partner max 10 µM) was run?
**A.** -0.0315

**Q.** And the Bliss excess [2]?
**A.** -0.0452

**Q.** With `CN(C)CCCOc1ccc(-c2ccc3ncc4c(c3c2)n(C2CCOCC2)c(=O)n4C)cn1` [AZD0156] + C=CCn1c(=O)c2cnc(Nc3ccc(N4CCN(C)CC4)cc3)nc2n1-c1cccc(C(C)(C)O)n1 [AZD1775] (first compound max 1 µM, partner max 1 µM) as the compound, how does the Bliss excess [1] read?
**A.** -0.0064

**Q.** What about the Bliss excess [2] of the same compound?
**A.** -0.0887

**Q.** For `Cc1c2c(nn1C)CSCc1cc(n(C)n1)CSc1cc(c3ccccc3c1)OCCCc1c(C(=O)O)n(C)c3c-2c(Cl)ccc13` [AZD5991] + C1CN(CCC1(C(=O)N[C@@H](CCO)C2=CC=C(C=C2)Cl)N)C3=NC=NC4=C3C=CN4 [Capivasertib] (first compound max 1 µM, 7x7, partner max 3 µM), which Bliss excess [1] is on record?
**A.** -0.0535

**Q.** What about the Bliss excess [2] of the same compound?
**A.** 0.034

**Q.** `Cc1cc2ncnn2cc1Nc1ncc2c(n1)n(C1CCOCC1)c(=O)n2C` [AZD7648] + O=C(c1cc(Cc2n[nH]c(=O)c3ccccc23)ccc1F)N1CCN(C(=O)C2CC2)CC1 [Olaparib] (first compound max 10 µM, 7x7, partner max 10 µM) was tested. Which Bliss excess [1] did it give?
**A.** -0.0568

**Q.** What about the Bliss excess [2] of the same compound?
**A.** -0.0381

**Q.** Which Bliss excess [1] does the source give for `CN(CCO)CC[C@H](CSc1ccccc1)Nc1ccc(S(=O)(=O)NC(=O)c2ccc(N3CCC([C@@H](O)c4ccccc4-c4ccc(Cl)cc4)CC3)cc2)cc1S(=O)(=O)C(F)(F)F` [AZD4320] + CN(C)CCCOc1ccc(-c2ccc3ncc4c(c3c2)n(C2CCOCC2)c(=O)n4C)cn1 [AZD0156] (first compound max 1 µM, 7x7, partner max 1 µM) here?
**A.** -0.0031

**Q.** What about the Bliss excess [2] of the same compound?
**A.** -0.0009

**Q.** With `CN(CCO)CC[C@H](CSc1ccccc1)Nc1ccc(S(=O)(=O)NC(=O)c2ccc(N3CCC([C@@H](O)c4ccccc4-c4ccc(Cl)cc4)CC3)cc2)cc1S(=O)(=O)C(F)(F)F` [AZD4320] + Cc1cc2ncnn2cc1Nc1ncc2c(n1)n(C1CCOCC1)c(=O)n2C [AZD7648] (first compound max 1 µM, 7x7, partner max 10 µM) as the compound, how does the Bliss excess [1] read?
**A.** -0.0484

**Q.** What about the Bliss excess [2] of the same compound?
**A.** -0.0291

**Q.** How did the Bliss excess [1] turn out when `Cc1c2c(nn1C)CSCc1cc(n(C)n1)CSc1cc(c3ccccc3c1)OCCCc1c(C(=O)O)n(C)c3c-2c(Cl)ccc13` [AZD5991] + CN(C)CCCOc1ccc(-c2ccc3ncc4c(c3c2)n(C2CCOCC2)c(=O)n4C)cn1 [AZD0156] (first compound max 1 µM, 7x7, partner max 1 µM) was run?
**A.** 0.0141

**Q.** What about the Bliss excess [2] of the same compound?
**A.** -0.0018

**Q.** For `CCN(CCO)CCCOc1ccc2c(Nc3cc(CC(=O)Nc4cccc(F)c4)[nH]n3)ncnc2c1` [AZD2811] + C=CCn1c(=O)c2cnc(Nc3ccc(N4CCN(C)CC4)cc3)nc2n1-c1cccc(C(C)(C)O)n1 [AZD1775] (first compound max 1 µM, partner max 1 µM), which Bliss excess [1] is on record?
**A.** -0.0144

**Q.** What about the Bliss excess [2] of the same compound?
**A.** 0.0295

**Q.** How did the Bliss excess [2] turn out when `CCc1c2c(nc3ccc(O)cc13)-c1cc3c(c(=O)n1C2)COC(=O)[C@]3(O)CC` [SN-38] + O=C(c1cc(Cc2n[nH]c(=O)c3ccccc23)ccc1F)N1CCN(C(=O)C2CC2)CC1 [Olaparib] (first compound max 0.3 µM, 7x7, partner max 10 µM) was run?
**A.** 0.0008

**Q.** Which results are given for `CN(CCO)CC[C@H](CSc1ccccc1)Nc1ccc(S(=O)(=O)NC(=O)c2ccc(N3CCC([C@@H](O)c4ccccc4-c4ccc(Cl)cc4)CC3)cc2)cc1S(=O)(=O)C(F)(F)F` [AZD4320] + CCN(CCO)CCCOc1ccc2c(Nc3cc(CC(=O)Nc4cccc(F)c4)[nH]n3)ncnc2c1 [AZD2811] (first compound max 1 µM, 7x7, partner max 1 µM)?
**A.** Bliss excess [1]: 0.0038; Bliss excess [2]: -0.0135

**Q.** Which Bliss excess [1] does the source give for `Cc1cc2ncnn2cc1Nc1ncc2c(n1)n(C1CCOCC1)c(=O)n2C` [AZD7648] + CCN(CCO)CCCOc1ccc2c(Nc3cc(CC(=O)Nc4cccc(F)c4)[nH]n3)ncnc2c1 [AZD2811] (first compound max 10 µM, 7x7, partner max 1 µM) here?
**A.** 0.0271

**Q.** And the Bliss excess [2]?
**A.** 0.013

**Q.** Which Bliss excess [1] does the source give for `Cc1c2c(nn1C)CSCc1cc(n(C)n1)CSc1cc(c3ccccc3c1)OCCCc1c(C(=O)O)n(C)c3c-2c(Cl)ccc13` [AZD5991] + CCN(CCO)CCCOc1ccc2c(Nc3cc(CC(=O)Nc4cccc(F)c4)[nH]n3)ncnc2c1 [AZD2811] (first compound max 1 µM, 7x7, partner max 1 µM) here?
**A.** 0.0055

**Q.** What about the Bliss excess [2] of the same compound?
**A.** 0.0359

**Q.** Which Bliss excess [1] does the source give for `CC1(C)CCC(CN2CCN(c3ccc(C(=O)NS(=O)(=O)c4ccc(NCC5CCOCC5)c([N+](=O)[O-])c4)c(Oc4cnc5[nH]ccc5c4)c3)CC2)=C(c2ccc(Cl)cc2)C1` [Venetoclax] + C[C@@H]1COCCN1C2=NC(=NC(=C2)C3(CC3)[S@](=N)(=O)C)C4=C5C=CNC5=NC=C4 [AZD6738] (first compound max 1 µM, 7x7, partner max 10 µM) here?
**A.** -0.0536

**Q.** What about the Bliss excess [2] of the same compound?
**A.** -0.0662

**Q.** What does the source list for `Cc1c2c(nn1C)CSCc1cc(n(C)n1)CSc1cc(c3ccccc3c1)OCCCc1c(C(=O)O)n(C)c3c-2c(Cl)ccc13` [AZD5991] + C=CCn1c(=O)c2cnc(Nc3ccc(N4CCN(C)CC4)cc3)nc2n1-c1cccc(C(C)(C)O)n1 [AZD1775] (first compound max 1 µM, partner max 1 µM)?
**A.** Bliss excess [1]: 0.0424; Bliss excess [2]: 0.0149

**Q.** Which Bliss excess [1] does the source give for `CN(C)CCCOc1ccc(-c2ccc3ncc4c(c3c2)n(C2CCOCC2)c(=O)n4C)cn1` [AZD0156] + CCN(CCO)CCCOc1ccc2c(Nc3cc(CC(=O)Nc4cccc(F)c4)[nH]n3)ncnc2c1 [AZD2811] (first compound max 1 µM, 7x7, partner max 1 µM) here?
**A.** 0.0128

**Q.** What about the Bliss excess [2] of the same compound?
**A.** -0.0184

**Q.** Which results are given for `Cc1c2c(nn1C)CSCc1cc(n(C)n1)CSc1cc(c3ccccc3c1)OCCCc1c(C(=O)O)n(C)c3c-2c(Cl)ccc13` [AZD5991] + C[C@@H]1COCCN1C2=NC(=NC(=C2)C3(CC3)[S@](=N)(=O)C)C4=C5C=CNC5=NC=C4 [AZD6738] (first compound max 1 µM, 7x7, partner max 10 µM)?
**A.** Bliss excess [1]: 0.0265; Bliss excess [2]: 0.0504

**Q.** What does the source list for `C[C@@H](c1ccc2nccn2c1)n1nnc2ncc(-c3cnn(C)c3)nc21` [Savolitinib] + CN(CC[C@H](CSC1=CC=CC=C1)NC2=C(C=C(C=C2)S(=O)(=O)NC(=O)C3=CC=C(C=C3)N4CCC(CC4)[C@H](C5=CC=CC=C5C6=CC=C(C=C6)Cl)O)S(=O)(=O)C(F)(F)F)CCO [AZD4320] (first compound max 1 µM, 7x7, partner max 1 µM)?
**A.** Bliss excess [1]: -0.0378; Bliss excess [2]: -0.0665
